Experiments:
Type in all cases: in vivo
[1] = system: radish; test: Pre-emergence application, herbicidal effect on radish (Table 1); design: key: 0: not damaged; 5: completely killed; details: 20 days after application, score 0-5
Outline: (§1)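 Steps: sow seeds individually in pots about 10 cm across; cover with soil; apply test compound as water-diluted wettable powder to the soil; grow in greenhouse; rate herbicidal effect at day 20 on a 0–5 scale (5 = completely killed).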

[2] = system: barnyard grass (Echinochloa crus-galli); test: Water application, herbicidal effect on barnyard grass (Table 2); design: key: 0: not damaged; 5: completely killed; details: 25 days, score 0-5
Outline: (§2)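 Flooded paddy soil, 3-leaf rice transplants, sown barnyard grass, spontaneous broadleaf weeds; WP formulation, water-lodged soil application; 0–5 visual rating, day 25.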

[3] = system: common lambsquarter (Chenopodium album); test: Pre-emergence application, herbicidal effect on common lambsquarter (Table 1); design: key: 0: not damaged; 5: completely killed; details: 20 days after application, score 0-5
Outline: as §1

[4] = system: broad-leaved weeds, e.g., monochoria, false pimpernel and toothcup; test: Water application, herbicidal effect on broad-leaved weeds (Table 2); design: key: 0: not damaged; 5: completely killed; details: 25 days, score 0-5
Outline: as §2

[5] = system: large crabgrass (Digitaria sanguinalis); test: Pre-emergence application, herbicidal effect on large crabgrass (Table 1); design: key: 0: not damaged; 5: completely killed; details: 20 days after application, score 0-5
Outline: as §1

[6] = system: rice; test: Water application, phytotoxicity on rice (Table 2); design: key: 0: no effect; 1: very slightly affected; 2: slightly affected; 3: moderately affected; 4: considerably affected; 5: completely killed; details: 25 days, score 0-5
Outline: as §2

[7] = system: barnyard grass (Echinochloa crus-galli); test: Pre-emergence application, herbicidal effect on barnyard grass (Table 1); design: key: 0: not damaged; 5: completely killed; details: 20 days after application, score 0-5
Outline: as §1

[8] = system: redroot pigweed (Amaranthus retroflexus); test: Pre-emergence application, herbicidal effect on redroot pigweed (Table 1); design: key: 0: not damaged; 5: completely killed; details: 20 days after application, score 0-5
Outline: as §1

[9] = system: common purslane (Portulaca oleracea); test: Pre-emergence application, herbicidal effect on common purslane (Table 1); design: key: 0: not damaged; 5: completely killed; details: 20 days after application, score 0-5
Outline: as §1

SMILES | Herbicidal effect, radish ([1]; 10 g./a.) | Herbicidal effect, radish ([1]; 20 g./a.) | Herbicidal effect, radish ([1]; 40 g./a.) | Herbicidal effects, barnyard grass ([2]; 10 g/a) | Herbicidal effects, barnyard grass ([2]; 20 g/a) | Herbicidal effects, barnyard grass ([2]; 40 g/a) | Herbicidal effect, common lambsquarter ([3]; 10 g./a.) | Herbicidal effect, common lambsquarter ([3]; 20 g./a.) | Herbicidal effect, common lambsquarter ([3]; 40 g./a.) | Herbicidal effects, broad-leaved weeds ([4]; 10 g/a) | Herbicidal effects, broad-leaved weeds ([4]; 20 g/a) | Herbicidal effects, broad-leaved weeds ([4]; 40 g/a) | Herbicidal effect, large crabgrass ([5]; 10 g./a.) | Herbicidal effect, large crabgrass ([5]; 20 g./a.) | Herbicidal effect, large crabgrass ([5]; 40 g./a.) | Phytotoxicity on rice ([6]; 10 g/a) | Phytotoxicity on rice ([6]; 20 g/a) | Phytotoxicity on rice ([6]; 40 g/a) | Herbicidal effect, barnyard grass ([7]; 10 g./a.) | Herbicidal effect, barnyard grass ([7]; 20 g./a.) | also measured
CCCOP(=O)(SCC(=O)N1CCCCC1CC)SC(C)CC (stereo not drawn) [Compound 87] | 0 | 0 | 0 | 5 | 5 | 5 | 3 | 3 | 5 | 5 | 5 | 5 | 5 | 5 | 5 | 0 | 0 | 0 | 5 | 5 | Herbicidal effect, barnyard grass ([7]; 40 g./a.): 5; Herbicidal effect, redroot pigweed ([8]; 10 g./a.): 3; Herbicidal effect, redroot pigweed ([8]; 20 g./a.): 4; Herbicidal effect, redroot pigweed ([8]; 40 g./a.): 5; Herbicidal effect, common purslane ([9]; 10 g./a.): 3; Herbicidal effect, common purslane ([9]; 20 g./a.): 4; Herbicidal effect, common purslane ([9]; 40 g./a.): 5
CCCOP(=O)(SCC(=O)N1CCCCC1CC)SCC(C)C (stereo not drawn) [Compound 88] | 0 | 0 | 0 | 5 | 5 | 5 | 3 | 3 | 4 | 5 | 5 | 5 | 5 | 5 | 5 | 0 | 0 | 0 | 5 | 5 | Herbicidal effect, barnyard grass ([7]; 40 g./a.): 5; Herbicidal effect, redroot pigweed ([8]; 10 g./a.): 3; Herbicidal effect, redroot pigweed ([8]; 20 g./a.): 3; Herbicidal effect, redroot pigweed ([8]; 40 g./a.): 4; Herbicidal effect, common purslane ([9]; 10 g./a.): 3; Herbicidal effect, common purslane ([9]; 20 g./a.): 3; Herbicidal effect, common purslane ([9]; 40 g./a.): 4
CCCCCSP(=O)(OCCC)SCC(=O)N1CCCCC1CC (stereo not drawn) [Compound 89] | 0 | 0 | 0 | 5 | 5 | 5 | 3 | 4 | 5 | 5 | 5 | 5 | 4 | 5 | 5 | 0 | 0 | 0 | 4 | 5 | Herbicidal effect, barnyard grass ([7]; 40 g./a.): 5; Herbicidal effect, redroot pigweed ([8]; 10 g./a.): 3; Herbicidal effect, redroot pigweed ([8]; 20 g./a.): 4; Herbicidal effect, redroot pigweed ([8]; 40 g./a.): 5; Herbicidal effect, common purslane ([9]; 10 g./a.): 3; Herbicidal effect, common purslane ([9]; 20 g./a.): 4; Herbicidal effect, common purslane ([9]; 40 g./a.): 5
CCCOP(=O)(SCCC(C)C)SCC(=O)N1CCCCC1CC (stereo not drawn) [Compound 90] | 0 | 0 | 0 | 5 | 5 | 5 | 3 | 3 | 5 | 5 | 5 | 5 | 5 | 5 | 5 | 0 | 0 | 1 | 5 | 5 | Herbicidal effect, barnyard grass ([7]; 40 g./a.): 5; Herbicidal effect, redroot pigweed ([8]; 10 g./a.): 3; Herbicidal effect, redroot pigweed ([8]; 20 g./a.): 4; Herbicidal effect, redroot pigweed ([8]; 40 g./a.): 5; Herbicidal effect, common purslane ([9]; 10 g./a.): 3; Herbicidal effect, common purslane ([9]; 20 g./a.): 4; Herbicidal effect, common purslane ([9]; 40 g./a.): 5
CCCCOP(=O)(SCC)SCC(=O)N1CCCCC1CC (stereo not drawn) [Compound 92] | 0 | 0 | 0 | 5 | 5 | 5 | 5 | 5 | 5 | 5 | 5 | 5 | 5 | 5 | 5 | 0 | 0 | 2 | 5 | 5 | Herbicidal effect, barnyard grass ([7]; 40 g./a.): 5; Herbicidal effect, redroot pigweed ([8]; 10 g./a.): 5; Herbicidal effect, redroot pigweed ([8]; 20 g./a.): 5; Herbicidal effect, redroot pigweed ([8]; 40 g./a.): 5; Herbicidal effect, common purslane ([9]; 10 g./a.): 5; Herbicidal effect, common purslane ([9]; 20 g./a.): 5; Herbicidal effect, common purslane ([9]; 40 g./a.): 5
CCCCOP(=O)(SCCC)SCC(=O)N1CCCCC1CC (stereo not drawn) [Compound 93] | 0 | 0 | 0 | 5 | 5 | 5 | 4 | 5 | 5 | 5 | 5 | 5 | 5 | 5 | 5 | 0 | 0 | 0 | 5 | 5 | Herbicidal effect, barnyard grass ([7]; 40 g./a.): 5; Herbicidal effect, redroot pigweed ([8]; 10 g./a.): 4; Herbicidal effect, redroot pigweed ([8]; 20 g./a.): 5; Herbicidal effect, redroot pigweed ([8]; 40 g./a.): 5; Herbicidal effect, common purslane ([9]; 10 g./a.): 4; Herbicidal effect, common purslane ([9]; 20 g./a.): 4; Herbicidal effect, common purslane ([9]; 40 g./a.): 5
